Results as given in patent US20070129409A1, “Androgen receptor modulators” (priority 2003, published 2007).
Substitutions are numbered along the chain they refer to. Read-outs that look alike come from different tables or passages of the source.

Tests used:
[1] = molecular target: T1, hAR (human androgen receptor) (Homo sapiens, UniProt P10275); experiment: Competitive binding analysis on hAR extracts with 3H-DHT tracer
T1 construct: made in house; host or cells: baculovirus/Sf9 insect cells
T1 sequence (P10275 1-920): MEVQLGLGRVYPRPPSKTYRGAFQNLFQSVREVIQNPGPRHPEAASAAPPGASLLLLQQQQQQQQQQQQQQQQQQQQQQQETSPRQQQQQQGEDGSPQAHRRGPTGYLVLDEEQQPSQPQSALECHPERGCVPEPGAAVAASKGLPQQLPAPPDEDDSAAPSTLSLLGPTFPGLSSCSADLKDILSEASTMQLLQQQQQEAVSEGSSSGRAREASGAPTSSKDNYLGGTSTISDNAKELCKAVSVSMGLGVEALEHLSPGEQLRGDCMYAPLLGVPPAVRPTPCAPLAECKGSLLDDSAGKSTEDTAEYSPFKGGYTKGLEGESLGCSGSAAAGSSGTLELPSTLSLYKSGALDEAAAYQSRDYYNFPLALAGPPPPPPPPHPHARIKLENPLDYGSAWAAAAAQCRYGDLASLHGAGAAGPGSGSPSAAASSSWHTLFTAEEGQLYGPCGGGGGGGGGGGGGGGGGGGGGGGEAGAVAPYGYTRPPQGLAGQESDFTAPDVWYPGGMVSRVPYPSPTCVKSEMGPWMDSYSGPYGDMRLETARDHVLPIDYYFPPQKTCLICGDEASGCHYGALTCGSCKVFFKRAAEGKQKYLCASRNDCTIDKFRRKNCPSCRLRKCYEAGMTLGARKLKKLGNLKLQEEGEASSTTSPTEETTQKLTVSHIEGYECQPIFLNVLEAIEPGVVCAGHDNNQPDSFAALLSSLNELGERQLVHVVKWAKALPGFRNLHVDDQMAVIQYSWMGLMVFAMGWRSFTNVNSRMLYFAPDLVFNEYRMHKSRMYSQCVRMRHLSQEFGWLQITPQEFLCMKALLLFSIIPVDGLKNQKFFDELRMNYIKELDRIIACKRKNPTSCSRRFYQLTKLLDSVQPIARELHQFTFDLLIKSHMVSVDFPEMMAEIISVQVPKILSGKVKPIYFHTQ
Experimental: The description below describes how the assay was carried out.
Competitive binding analysis was performed on baculovirus/Sf9 generated hAR extracts in the presence or absence of different concentrations of test agent and a fixed concentration of ^3H-dihydrotestosterone (^3H-DHT) as tracer. This binding assay method is a modification of a protocol previously described (Liao S., et. al. J. Steroid Biochem. 20:11-17 1984). Briefly, progressively decreasing concentrations of compounds are incubated in the presence of hAR extract (Chang et al. P.N.A.S. Vol. 89, pp. […], 1992), hydroxylapatite, and 1 nM^3 H-DHT for one hour at 4° C. Subsequently, the binding reactions are washed three times to completely remove excess unbound ^3H-DHT. hAR bound ^3H-DHT levels are determined in the presence of compounds (=i.e competitive binding) and compared to levels bound when no competitor is present (=i.e. maximum binding). Compound binding affinity to the hAR is expressed as the concentration of compound at which one half of the maximum binding is inhibited.

androgen receptor = molecular target: T2, androgen receptor (Homo sapiens, UniProt P10275, Q868H); experiment: AR antagonist cell assay (MDA-MB453-MMTV luciferase reporter, 100 pM DHT); assay type: cell-based
T2 construct: a human breast tumor cell line expressing androgen receptor; endogenous in cells; host or cells: MDA-MB453-MMTV clone 54-19 (MDA-MB-453 stably transfected with the MMTV-luciferase reporter only)
T2 sequence (P10275 1-920 Q868H): T1 sequence (P10275 1-920) with Q868H
Experimental: The compounds ability to antagonize the effects of androgen on the androgen receptor were determined in a whole cell assay as described immediately below.
Experimental Procedure for AR Antagonist Cell Assay
This cell line is a stable transfected cell line with MDA-MB453 cell background (a human breast tumor cell line expressing androgen receptor). A MMTV minimal promoter containing ARE was first cloned in front of a firefly luciferase reporter gene. Then the cascade was cloned into transfection vector pUV120puro. […] Puromycin resistant stable cell line was selected.
Cell Culture Media and Reagents:
Plating medium: DMEM (phenol red free), 10% charcoal treated HyClone serum, 1% L-glutamine
Assay medium: DMEM (phenol red free), 1% charcoal treated HyClone serum, 1% L-glutamine, and 1% penicillin/streptomycin
• 1. Cells are maintained in culture medium, splitting cells when they reach 80-90% confluence • 2. To test compounds, 10,000 cells/well are plated to opaque 96 cell culture plate in 100 uvwell plating medium, culture for overnight at 37° C. in cell culture incubator • 3. […] Add 10 ul/well freshly prepared DHT (final concentration at 100 pM) to each well, incubate at 37° C. for 17 hr (overnight) • 5.
The results are reported as the mean of multiple tests as described below (the numbers of tests are indicated in the footnote). N.D. denotes that the compound was not tested.

Male C3H/HeN mice = experiment: Modified telogen conversion assay; assay type: in vivo; conditions: 3% w/v in propylene glycol (30%)/ethanol (70%), topical, twice daily for 4 weeks
Source text: The telogen conversion assay measures the potential of a compound to convert mice in the resting stage of the hair growth cycle (“telogen”) to the active stage of the hair growth cycle (“anagen”). This assay takes advantage of the fact that the fur (i.e. hair) of 7 week old C3H/HeN mice is in the telogen phase. This phase continues until about 75 days of age. In this assay, selected areas of the mice are shaved, contacted with a test agent, or a control, and the difference in the rate of hair growth is measured (i.e. induction of the anagen phase). The first sign of anagen is the darkening of skin color as melanocytes in the follicles start to synthesize melanin, in preparation for the production of pigmented hairs. This model has a number of advantages. This includes the ready availability of female CH3HeN mice, the ability to screen large numbers of compounds quickly, and the ease of housing and handling such animals.
It has been discovered that male C3H/HeN mice may be used in the telogen conversion assay, when evaluating anti-androgen test compounds. Thus, the model relates to a modification of the existing telogen conversion assay. […]
The treatment area was observed and graded every other day for signs of hair growth. The hair growth response was quantified by recording, for each animal, the day on which signs of hair growth first appeared over the treated area. […]

[2] = after 7 years of treatment; cited from earlier work
[3] = baculovirus/Sf9 generated hAR extract, 1 nM 3H-DHT, one hour at 4° C., mean of repeated tests, read-out: AR Binding IC50
[4] = MDA-MB453-MMTV clone 54-19, 100 pM DHT, 17 hr, mean of multiple tests, read-out: AR Cell IC50

2-Chloro-6-(methyl-propyl-amino)-4-trifluoromethyl-nicotinonitrile [Example 12]
IC50 [1, 3]: 88 nM | IC50 (androgen receptor; [4]): 587 nM

C[C@H](c1ccccc1)N(C)c1cc(C(F)(F)F)c(C#N)cn1 (hydrate or solvate) [Example 1, (R)-(+)-6-[Methyl-(1-Phenyl-ethyl)-amino]-4-trifluoromethyl-nicotinonitrile]
melting point: 47.2 to 47.7 °C

C[C@H](c1ccccc1)N(C)c1cc(C(F)(F)F)c(C#N)cn1 [Example 1, (R)-(+)-6-[Methyl-(1-Phenyl-ethyl)-amino]-4-trifluoromethyl-nicotinonitrile]
IC50 [1]: 20 nM | IC50 (androgen receptor): 45 nM | hair growth (induction of anagen) (Male C3H/HeN mice): produced substantial hair growth

CC(c1ccccc1)N(C)c1cc(C(F)(F)F)c(C#N)cn1 (centres unmarked) [Example 2, 6-[Methyl-(1-Phenyl-ethyl)-amino]-4-trifluoromethyl-nicotinonitrile]
IC50 [1]: 123 nM | IC50 (androgen receptor): 229 nM

CCCN(CCC)c1cc(C(F)(F)F)c(C#N)cn1 [Example 3, 6-Dipropylamino-4-trifluoromethyl-nicotinonitrile]
IC50 [1]: 22 nM | IC50 (androgen receptor; [4]): > 1000 nM

CCC(C)N(C)c1cc(C(F)(F)F)c(C#N)cn1 (centres unmarked) [Example 4, 6-(sec-Butyl-methyl-amino)-4-trifluoromethyl-nicotinonitrile]
IC50 [1]: 10 nM | IC50 (androgen receptor; [4]): > 1000 nM

CCCCN(CCO)c1cc(C(F)(F)F)c(C#N)cn1 [Example 5, 6-[Butyl-(2-hydroxy-ethyl)-amino]-4-trifluoromethyl-nicotinonitrile]
IC50 [1, 3]: 548 nM

CN(Cc1ccccc1)c1cc(C(F)(F)F)c(C#N)cn1 [Example 7, 6-(Benzyl-methyl-amino)-4-trifluoromethyl-nicotinonitrile]
IC50 [1, 3]: 538 nM

CCCN(c1cc(C(F)(F)F)c(C#N)cn1)C1CCCCC1 [Example 8, 6-(Cyclohexyl-propyl-amino)-4-trifluoromethyl-nicotinonitrile]
IC50 [1, 3]: 425 nM

CCC(C)N(C)c1cc(C(F)(F)F)c(C#N)c(Cl)n1 (centres unmarked) [Example 10]
IC50 [1]: 0.5 nM | IC50 (androgen receptor; [4]): > 1000 nM

CCCN(CCC)c1cc(C(F)(F)F)c(C#N)c(Cl)n1 [Example 11, 6-Dipropylamino-2-chloro-4-rtifluoromethyl-nicotinonitrile]
IC50 [1]: 8.2 nM | IC50 (androgen receptor; [4]): > 1000 nM

NCCCC(O)(P(=O)(O)O)P(=O)(O)O [alendronate]
increase in spinal BMD [2]: ≤ 11%
